Experimental data taken from patent US20160030443A1, “METHODS AND COMPOSITIONS FOR MODULATING REGULATORY T CELL FUNCTION” (priority 2013, published 2016).

System: human Treg cells
Assay: Functional screening assay: naïve CD4+ T cell proliferation ([3H]thymidine) with Treg cells and small molecule compounds
Format: cell-based
Conditions: compound 1 μM; [3H]thymidine incorporation; marked effect = CPM>60K, 50% restoration
Experimental: These small molecule compounds contain a quinolone structure. Those with a marked effect on the proliferation of CD4^+ naïve T cells (CPM>60K, 50% restoration compared to naïve T cells alone) are considered excellent candidates for further drug development. Naïve T cells alone or CD4^+ naïve cells plus Treg cells, without any compound serve as controls. […]
Specifically, a functional screening assay was carried out using soluable anti-CD3 antibody plus antigen-presenting cells (APCs). Naïve CD4^+T cells were purified from PBMCs using microbeads (Miltenvi Biotec). DCs were generated from PBMC-derived monocytes in the presence of IL-4 (500 ng/ml) and GM-CSF (800 ng/ml) for 7 days. 1×10^5 naïve CD4^+ T cells were cultured with regulatory T cells at different ratios of 1:0.2, 1:0.1 and 1:0.05 in 200 μl of medium containing 2×10^4 of DCs and anti-CD3 antibody (100 ng/ml) in the absence or presence of various small molecule compounds (1 μM). □ After 56 hours of culture, [^3H]thymidine was added at a final concentration of 1 μCi/well, followed by an additional 16 h. of culture. The incorporation of [^3H]thymidine was measured with a liquid scintillation counter. All experiments were performed in triplicate. In addition, a screening assay was performed usinge anti-CD3 antibody coated without APCs: 1×10^5 naïve CD4 T cells were cultured with regulatory T cells at different ratios of 1:0.2, 1:0.1 and 1:0.05 in anti-CD3 mAb-coated (2 μg/ml) 96-well plates in the absence or presence of various small molecule compounds (1 μM) □. After 56 h of culture, [^3H]thymidine was added at a final concentration of 1 μCi/well, followed by an additional 16 h of culture. The incorporation of [^3H]thymidine was measured with a liquid scintillation counter.

| SMILES | Reversal of the suppressive function of Treg cells (restoration of naïve CD4+ T cell proliferation) |
| --- | --- |
| CC1COc2c(F)c(F)cc3c(=O)c(C(=O)O)cn1c23 (stereo not shown) [#20, 9,10-Difluoro-3-methyl-7-oxo-2,3-dihydro-7H-[1,4]oxazino[2,3,4-ij]quinoline-6-carboxylic acid] | TRE0008195 #20 No activity |
| O=C(O)c1coc2ccc(F)cc2c1=O [#28, 6-Fluoro-4-oxo-4H-chromene-3-carboxylic acid] | TRE0080974 #28 No activity |
| CCn1cc(C(=O)O)c(=O)c2cc(F)c(NN3C(=O)C(Cl)C3c3ccc(OC)cc3)cc21 (stereo not shown) [#12, 7-{[3-Chloro-2-(4-methoxyphenyl)-4-oxo-1-azetidinyl]amino}-1-ethyl-6-fluoro-4-oxo-1,4-dihydro-3-quinolinecarboxylic acid] | ST026709 #12 No activity |
| CCOC(=O)c1c[nH]c2c(F)c(F)c(F)cc2c1=O [#18, Ethyl 6,7,8-trifluoro-1,4-dihydro-4-oxo-3-quinilinecarboxylate] | TRE0006666 #18 No activity |
| CCn1cc(C(=O)O)c(=O)c2cc(F)c(NN3C(=O)/C(=C\c4ccccc4)N=C3c3ccccc3)cc21 [#9, F[…] 5- MALEIMIDE] | ST023837 #9 No activity |
| CCCCCn1cc(C(=O)O)c(=O)c2cc(F)c(F)cc21 [#8, 6,7-difluoro-4-oxo-1-pentylquinoline-3-carboxylic acid] | ST008097 #8 No activity |
| CC1CCc2cc(F)cc3c(=O)c(C(=O)O)cn1c23 (stereo not shown) [#21, 9-Fluoro-5-methyl-1-oxo-6,7-dihydro-1H,5H-pyrido[3,2,1-ij]quinoline-2-carboxylic acid, reference compound] | TRE0065224 #21 No activity |
| CCn1cc(C(=O)O)c(=O)c2cc(F)c(NN3C(=O)CSC3c3ccccc3Cl)cc21 (stereo not shown) [#11, {[2-(2-chlorophenyl)-4-oxo(1,3-thiazolidin-3-yl)]amino}-1-ethyl-6-fluoro-4-o xohydroquinoline-3-carboxylic acid] | ST048777 #11 No activity |
| Fc1ccccc1N1CCNCC1 [#17, 1-(2-Fluorophenyl)piperazine] | TRE0005772 #17 No activity |
| CCN1CCN(c2cc3c(cc2F)c(=O)c(C(=O)O)cn3C2CC2)CC1 [#26, 1-Cyclopropyl-7-(4-ethyl-1-piperazinyl)-6-fluoro-4-oxo-1,4-dihydro-3-quinolinecarboxylic acid, reference compound] | TRE0076990 #26 No activity |
| O=C(O)c1c[nH]c2ccccc2c1=O [#10, 4-oxo-1H-quinoline-3-carboxylic acid] | ST020639 #10 No activity |
| CCn1cc(C(=O)O)c(=O)c2cc(F)c(Cl)cc21 [#19, 7-Chloro-1-ethyl-6-fluoro-4-oxo-1,4-dihydro-3-quinolinecarboxylic acid] | TRE0007211 #19 No activity |
| Fc1ccc(N2CCNCC2)c(F)c1 [#16, 1-(2,4-Difluorophenyl)piperazine] | TRE0005495 #16 No activity |
| CCOC(=O)c1cn(-c2ccc(F)cc2F)c2nc(Cl)c(F)cc2c1=O [#14, ethyl 7-chloro-1-(2,4-difluorophenyl)-6-fluoro-4-oxo-1,8-naphthyridine-3-carboxylate] | ST067113 #14 No activity |
| CCOC(=O)c1cn(CC)c2c(F)c(F)c(F)cc2c1=O [#27, Ethyl 1-ethyl-6,7,8-trifluoro-1,4-dihydro-4-oxo-3-quinolinecarboxylate] | TRE0080754 #27 No activity |
| Fc1ccccc1N1CCNCC1 [#15, 1-(2-Fluorophenyl)piperazine] | TRE0004030 #15 No activity |
